Assay results as given in US20240310360A1, “METHOD OF […] RESPONSE OF CELL GROUP TO TEST SUBSTANCE” (CANON KABUSHIKI KAISHA, priority 2023, published 2024).
Where two headings read alike, the source gives them in different places.

How the values were obtained:
PBMCs [1] = assay: Autofluorescence imaging FAD/NADH ratio of PBMCs after antigen stimulation (Example 2); format: cell-based; settings: peptide solution 10 nM, PBMCs without preculturing
Procedure: PBMCs having reactivity to a test substance that differs from the reactivity in Example 1 were used here. The PBMCs used here were manufactured by Cellular Technology Limited, and thawed by following a manual provided by the manufacturer. Unlike Example 1, preculturing was skipped and the PBMCs were immediately presented to a test for examining reactivity to a test substance.
The thawed PBMCs were suspended in the CTL-Test Medium at a cell concentration of 7.2×10^6 cells/mL, and 250 μL each was seeded in a 24-well plate. As the test substance, a peptide solution manufactured by Cellular Technology Limited, specifically, CMV pp65 (495-503) Peptide (having a peptide concentration of 10 nM) was used, and 250 μL of this peptide solution was added to each of the wells containing the cells.
As a control cell group to which no test substances were added, cells to which 250 μL each of CTL-Test Medium was added instead of a peptide solution were used. After antigen stimulation, the cells were left to stand for 1 hour to 24 hours in a 5% CO2 incubator. From each well, an entire amount of cell suspension solution was collected and subjected to 5 minutes of centrifugation at 300 G. After the centrifugation, a supernatant was removed and cell pellets were suspended in 1,000 μL of PBS. Further, the resultant cell suspension solution was diluted 5 times with the PBS. Then, 100 μL of the diluted cell suspension solution was seeded onto a cover glass part (having a diameter of 16 mm) of a 35-mm glass bottom dish, and was used for bright field observation and autofluorescence observation.
The subsequent bright-field image acquisition, autofluorescence image acquisition, extraction and analysis of the color information of the autofluorescence images were performed by the same methods as the methods in Example 1.

PBMCs [2] = settings: PBMCs used in Example 1; confirmed in advance by the manufacturer; cited from earlier work
PBMCs [3] = settings: PBMCs used in Example 2; confirmed in advance by the manufacturer; cited from earlier work

CMV pp65 (495-503) Peptide: peptide solution manufactured by Cellular Technology Limited; peptide that binds directly to an MHC (NLVPMVATV; UniProt P06725 495-503, looked up, fragment)
drop in FAD/NADH ratio compared to PBMCs with no test substance added (PBMCs [1]; 1 hour of stimulation): reproduced | drop in FAD/NADH ratio compared to PBMCs with no test substance added (PBMCs [1]; 4 hours after stimulation): hardly observed | drop in FAD/NADH ratio compared to PBMCs with no test substance added (PBMCs [1]; period from 4 hours to 24 hours after stimulation): substantially no drop | reactivity of the PBMCs to the peptide (ELISpot test) (PBMCs [2]): react weakly | reactivity of the PBMCs to the peptide (ELISpot test) (PBMCs [3]): react strongly
